The values below come from publication PMC5445283, “Selection and characterization of alanine racemase inhibitors against Aeromonas hydrophila” (BMC Microbiology, 2017).

Converted amounts (≈) assume the structure as drawn. “And” between values parts separate entries of the source, which are not always exact repeats. Equal entries are not always repeated. “Also recorded” adds a separate entry of the source. Structures can show the parent of a compound that is named as a salt. Where two headings read alike, the source gives them in different places.

For orientation: IC50 means the concentration at which inhibition is half-maximal. For orientation: MIC means the lowest concentration that inhibits growth of the organism. What is called Ki is a dissociation constant, usually derived from enzyme kinetics or from competition with a known ligand.

Data set [1] has as its system D-amino acid oxidase (DAAO) and horseradish peroxidase (HRP). Description: Assay interference counter screen (second step of the assay). Format: biochemical. The settings on record: for inhibition of second-step enzymes / assay interference, in words: HRP and DAAO, within a concentration of 50 μM; for IC50: DAAO/HRP reaction, 10 μM D-ala as substrate, read-out: IC50 on the enzymes in the second step (counter screen). As for the experimental part:
To eliminate the inhibitory effects of the compounds on DAAO and HRP, a counter screening assay was performed as described above. The first-step assay mixtures without alanine racemase and L-alanine were added to each test well, followed by the addition of a twofold dilution series (in DMSO) of the inhibitors to the sample test wells, and finally, the addition of DMSO to the blank control wells. Then, DMSO was added to each well to obtain reaction mixtures at a final volume of 100 μl.
Second, the D-amino acid oxidase reaction mixture was prepared using 10 μM D-ala as the substrate. The control and control blank for the enzyme assay was prepared with or without 10 μM D-ala and absorbance was measured at 550 nm.
A general note: The purpose of a counterscreen is to sort out artefacts and off-target activity.

The target of data set [2] is T1, alanine racemase Alr-2 (Aeromonas hydrophila, UniProt A0KL98). Description: biochemical. As for the experimental part:
Alanine racemase activity was measured at room temperature in the L → D direction using a spectrophotometric assay. The assay was modified by varying the volume to 100 μl and dividing it into two steps (Fig. 1).
The first step (F1) is the production of the D-form amino acids. The optimized enzyme assay reaction mixture consisted of 10 μM PLP, 12.5 mM of NaHCO3-NaOH buffer (pH 11), and 50 mM L-alanine and alanine racemase. A total of 100 μl of this reaction mixture was added to the wells of a 96-well plate. After incubation at 35 °C for 10 min, the reaction was terminated by adding 12.5 μl of 2 M HCl, and the incubation was continued for 2 min on ice. The reaction mixture was centrifuged at 10,000 RPM, for 10 min at 4 °C, and 10 μl of 2 M NaOH was added to neutralize the reaction mixture. The second step (F2) is the conversion of D-alanine to α-keto acids using D-amino acid oxidase (DAAO). The formation of H2O2 from this reaction can be quantified using horseradish peroxidase (HRP) at 550 nm. The DAAO reaction mixture contained 200 mM of Tris-HCl (pH 8.0), 0.1 mg/ml 4-aminoantipyrine (AAP), 0.1 mg/ml N-ethyl-N-(2-hydroxy-3-sulfopropyl)-m-toluidine sodium salt (TOOS), 2 units of HRP, 0.1 unit of DAAO and D-form amino acid solution in a final volume of 100 μl. The negative control for the enzyme assay was prepared using the same procedure but without enzyme. After incubating at 37 °C for 30 min, the absorbance was measured at 550 nm using a Spectra MAX 190 microplate reader (Molecular Devices Corp., USA). One unit (U) of enzyme was defined as the amount of purified enzyme that catalyzed the formation of 1 μmol of D-alanine from L-alanine per minute.
Each well (sample, control, and their blanks) contained the screening assay reaction mixture of 10 μM PLP and 12.5 mM NaHCO3-NaOH buffer (pH 11). Next, 4 μl of test substance (small molecular compounds or natural product extracts) was added to the sample and sample blank test tubes. Finally, […] alanine racemase was added to the sample and control test tubes while the same volume of DMSO was added to the sample blank and control blank test tubes. After incubation at 4 °C for 30 min, 50 mM L-alanine was added to the sample and control test wells while DMSO was added to the sample blank and control blank test wells to obtain a final volume of 100 μl. The control and control blank were defined as 100% and 0% of enzyme activity. The reaction was then carried out as described for the alanine racemase assay. The assay is divided into two steps: absorbance was measured at 550 nm at the end of the first (F1), and second (F2) steps and ΔF was defined as F2-F1. Inhibition activity was calculated from the following equation.
Fourfold dilution series (in DMSO) were prepared for all the compounds, and the solutions were added to the wells of a 96-well plate to yield the final inhibitory concentrations. Each concentration was tested in triplicate. The substrate was added after incubation for 30 min, and the fluorescence intensity was measured after the reaction. The positive control (D-cycloserine, DCS) was diluted in DMSO, and the negative control was prepared without adding an inhibitor to the control wells of each plate. Percentage inhibition at each inhibitor concentration was calculated with respect to the negative control. The results were analyzed using the SPSS 16.0 IBM modeler to calculate the compound concentration that causes 50% inhibition (IC50).

For another data set, the system named is A. hydrophila Δalr-2. Format: cell-based, Aeromonas hydrophila. The settings on record: for MIC against A.hydrophila Δalr-2: average values with standard deviations in parentheses, NC: non calculable as the values are too high. As for the experimental part: A. hydrophila HBNUAh01 isolated from infected Paralichthys olivaceus and an A. hydrophila alr-2 knockout mutant were used in this study. Escherichia coli BL-21(DE3) cells were used for protein expression. The pET-25b-alr2 plasmid was used for protein expression. The A. hydrophila and E. coli strains were cultured in Luria-Bertani (LB) medium at 30 °C and 37 °C, respectively. For plasmid selection, 0.5 mmol/l ampicillin (AMP, Sigma–Aldrich Inc., USA) was added to the LB medium for experiments with E. coli.
(§1) A. hydrophila was cultured for 18 h, washed with PBS (pH 7.2), and adjusted to an OD600 value of 0.5. Next, the culture was diluted tenfold five times, and aliquots were spread on LB agar in triplicate to determine the number of colony-forming units (CFU)/ml.
(§2) The minimum inhibitory concentration (MIC) of the chemical compounds against A. hydrophila was determined using the microdilution method in accordance with the guidelines of the Clinical and Laboratory Standards Institute, document M31-A3 [16], following the method described by Dal Pozzo et al.. Compounds were diluted in DMSO at concentrations of 80, 40, 20, or 10 μg/ml. Appropriate controls were included in all tests. DCS is a naturally occurring antibacterial compound that targets alanine racemase involved in peptidoglycan synthesis. DCS was used as a positive control ([…]), DMSO solvent was used as a negative control for growth inhibition and DMSO alone was used as the blank control. All tests were performed in triplicate. The inoculum was prepared in LB culture medium (1 × 10^8 CFU/ml; OD600 = 0.3) and cultured at 30 °C/20 h. The inoculum (100 μl; 1 × 10^5 CFU) was added to each well containing compounds. The microplates were incubated at 30 °C for 20 h.

Another data set relates to Caco-2 cells. Further details: method as in PMID 22146584. The note with it: cited from earlier work.
The subject of the next data set is A. hydrophila. In words: Antimicrobial susceptibility test, MIC by microdilution. It is filed as cell-based, Aeromonas hydrophila. The note with it: for MIC: Aeromonas hydrophila, read-out: MIC against A.hydrophila; for growth inhibition of A. hydrophila, in words: screen for antimicrobial activity. The method, then: as §1, §2
Background: Broth dilution looks for growth in wells or tubes with falling amounts of substance.

The test system of a further data set is HeLa cells. It is filed as cell-based. The settings on record: for TC50, cytotoxicity in HeLa cells: MTT, 48 h exposure, average values with standard deviations, NC: non calculable as the values are too high; for cytotoxicity, in words: MTT assay, HeLa / mammalian cells. The method, then:
This assay was performed in a 96-well plate format and used HeLa cells. The cell viability was determined using 3-(4,5-dimethyl-2-thiazole)-2,5-diphenyl-2H-tetrazolium bromide (MTT, Sigma-Aldrich). Cells were seeded in culture medium in microplates (4000 cells/well) and incubated at 37 °C for 24 h before drug treatments. […] The cells were exposed to the compounds for 48 h. At the end of the incubation, the cells were exposed to MTT (0.5 mg/ml) at 37 °C for 4 h. The reduced crystals were dissolved in DMSO, and absorbance was detected at 490 nm. The […] were set as zero absorbance. The percentage of cell survival was calculated using the background-corrected absorbance as follows: Cell survival (%) = (ODexperiment/ODcontrol) × 100. The data represent the mean and standard deviation from triplicate determination.

The target in data set [3] is T1, alanine racemase Alr-2. In words: Kinetics of alanine racemase inhibition (Lineweaver-Burk). It is filed as biochemical. The settings on record: for Ki: Lineweaver-Burk analysis, read-out: inhibition constant Ki; for type (mode) of inhibition: Lineweaver-Burk profile. The method, then:
The mode of inhibition of the enzyme by the compounds was determined as follows. The experiment was composed of three sets of reactions in which each set consisted of four concentrations of substrate in the presence of fixed amounts of alanine racemase, and three different concentrations of inhibitors were used. For homogentisic acid and hydroquinone, 0, 0.02 and 0.04 mg/ml were used. The reactions were made as described. The amount of product was determined spectrophotometrically and subsequently the standard curve was used to obtain reaction velocities. A double reciprocal plot (1/V versus 1/[S]), where V is reaction velocity and [S] is substrate concentration, was plotted. The type (mode) of inhibition of enzyme activity by the compounds was determined by analysis of the double reciprocal (Lineweaver-Burk) plot using Michaelis-Menten kinetics. The inhibition constant (K i) of the inhibitors was determined.

Setting [4] is: average values with standard deviations in parentheses, read-out: IC50 against Alr-2 with PLP.
The mark [5] stands for this setting: average values with standard deviations in parentheses, NC: non calculable as the values are too high.

T1 sequence (A0KL98 entry or part of it): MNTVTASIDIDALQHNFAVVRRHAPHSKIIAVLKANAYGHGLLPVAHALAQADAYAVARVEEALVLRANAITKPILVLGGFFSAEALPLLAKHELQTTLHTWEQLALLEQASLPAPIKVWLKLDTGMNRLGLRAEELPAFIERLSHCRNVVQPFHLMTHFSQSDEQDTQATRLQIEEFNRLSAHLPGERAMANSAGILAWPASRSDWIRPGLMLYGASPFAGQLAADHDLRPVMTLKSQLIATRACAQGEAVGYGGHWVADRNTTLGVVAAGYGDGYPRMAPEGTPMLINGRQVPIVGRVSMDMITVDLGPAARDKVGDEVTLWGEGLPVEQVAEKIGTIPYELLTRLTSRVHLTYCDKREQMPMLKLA

With `O=C1C=C2C(=CCOC2O)O1` (centres unmarked) [Compound I-2, Patulin], the “inhibition of second-step enzymes / assay interference, in words” value in data set [1] is “weak inhibition”. Further, the “inhibition of second-step enzymes / assay interference, in words” value in data set [1] (listed as patulin) is recorded as “No assay interference”. The compound further had an IC50 against alanine racemase Alr-2 [2] of 14.7 µM. The “MIC against A.hydrophila Δalr-2” value in the data set on A. hydrophila Δalr-2 is reported as 80(3.96) μg/ml. The “IC50 against Caco-2 cells” value in the data set on Caco-2 cells was 0.62 µg/mL (≈ 4.02 µM). In addition, in the data set on A. hydrophila, the MIC came to 20 µg/mL (≈ 130 µM) and the “growth inhibition of A. hydrophila, in words” value (“growth inhibition” below) is reported as “inhibit the growth of A. hydrophila significantly”.
On to `CCCOC(=O)c1cc(O)c(O)c(O)c1` [Compound I-5, Propyl Gallate], for which the 50% inhibitory concentration (IC50) at alanine racemase Alr-2 [2] (setting [4]) was 8.6 µM.
`N[C@@H]1CON=C1O` [DCS, D-cycloserine, reference compound]: the “TC50, cytotoxicity in HeLa cells” value in the data set with HeLa cells is 149.6 μg/ml and 149.6(5.9) μg/ml. The half-maximal inhibitory concentration (IC50) at alanine racemase Alr-2 [2] (setting [4]) amounted to 5.4 µM. In addition, the “MIC against A.hydrophila Δalr-2” value in the data set on A. hydrophila Δalr-2 is 50(2.9) μg/ml. In the data set on A. hydrophila (setting [5]), the minimal inhibitory concentration (MIC) is 25 µg/mL (≈ 245 µM).
Take Anabellamide [Compound I-1]: the concentration for half-maximal inhibition (IC50) at alanine racemase Alr-2 [2] (setting [4]) was 6.6 µM.
In the case of `O=C(O)Cc1cc(O)ccc1O` [Compound I-3, Homogentisic acid], at alanine racemase Alr-2 [3], the inhibitory constant (Ki) was determined as 51.7 µM and the “type (mode) of inhibition” value is recorded as “competitive type of inhibition”. Besides, in the data set on HeLa cells, the “cytotoxicity, in words” value was “minimal cytotoxicity”; the “TC50, cytotoxicity in HeLa cells” value was 157.7 μg/ml and 157.7(6.1) μg/ml. For the same compound, in data set [1], the IC50 came out at 96.1 µM and the “inhibition of second-step enzymes / assay interference, in words” value is “No assay interference”. In addition, at alanine racemase Alr-2 [2], the IC50 was found to be 12.5 µM. Also, in the data set on A. hydrophila Δalr-2, the “antimicrobial activity against A. hydrophila Δalr-2, in words” value is “no antimicrobial activity”. For the same compound, the minimum inhibitory concentration (MIC) in the data set with A. hydrophila (setting [5]) is 120 µg/mL (≈ 714 µM). Also, in the data set on A. hydrophila, the “growth inhibition” value is recorded as “inhibit the growth of A. hydrophila significantly”.
Compound `Oc1ccc(CC2NCCc3cc(O)c(O)cc32)cc1` (centres unmarked) [Compound I-9, Higenamine] came in with an IC50 against alanine racemase Alr-2 [2] of 14.3 µM.
Turning to `Oc1cc2c(cc1O)C1c3ccc(O)c(O)c3OCC1(O)C2` (centres unmarked) [Compound I-8, Haematoxylin], the IC50 on alanine racemase Alr-2 [2] (setting [4]) is 15.6 µM.
Still for that read-out and setting: the same measure for `O=C(O)CCc1ccccc1Nc1c2ccccc2nc2ccccc12` [Compound I-7, Benzenepropanoic acid,2-(9-acridinylamino)-monohydrochloride]: 17.7 µM.
`O=c1c(O)c(-c2ccc(O)c(O)c2)oc2cc(O)cc(O)c12` [Compound I-10, Quercetin] gave an IC50 at alanine racemase Alr-2 [2] of 15.5 µM.
For `CCCCC1(C)C=CC(=C2C(=O)OC(=CC(=O)O)C2=O)O1` (centres unmarked) [Compound I-4, Acetic acid,[4-(5-butyl-5-methyl-2(5H)-furanylidene)dihydro −3,5-dioxo-2(3H)-furanylidene]-(9CI)], at alanine racemase Alr-2 [2] (setting [4]), the IC50 was 8.9 µM.
Take `Oc1ccc(O)cc1` [Compound I-6, Hydroquinone]: on alanine racemase Alr-2 [3], the Ki was 212 µM and the “type (mode) of inhibition” value was “noncompetitive inhibitor; also recorded: noncompetitive type of inhibition”. Further, in the data set on HeLa cells, the “cytotoxicity, in words” value is “minimal cytotoxicity”; the “TC50, cytotoxicity in HeLa cells” value was 122.9 μg/ml and 122.9(8.9) μg/ml. Besides, in data set [1], the concentration for half-maximal inhibition (IC50) was found to be 113 µM and the “inhibition of second-step enzymes / assay interference, in words” value was “No assay interference”. This compound yielded a 50% inhibitory concentration (IC50) at alanine racemase Alr-2 [2] of 18.5 µM. Also, the “MIC against A.hydrophila Δalr-2” value with A. hydrophila Δalr-2 is 140(2.4) μg/ml. Besides, in the data set on A. hydrophila (setting [5]), the MIC was 80 µg/mL (≈ 727 µM). Moreover, the “growth inhibition” value in the data set on A. hydrophila is “inhibit the growth of A. hydrophila significantly”.
